Data from patent US20070249691A1, “Mercaptoimidazoles as Ccr2 Receptor Antagonists” (priority 2004, published 2007).

Tests used:
CCR2B = molecular target: T1, CCR2B (Homo sapiens, UniProt P41597); assay: 125I-MCP-1 radioligand binding assay, membranes from CCR2B-transfected CHO cells; details: competition with 0.15 nM 125I-MCP-1, CCR2B-transfected CHO cell membranes, Cheng-Prusoff
T1 construct: expressed in transfected cells; host or cells: CHO cells (membrane preparation)
T1 sequence (P41597 1-360 isoform P41597-2): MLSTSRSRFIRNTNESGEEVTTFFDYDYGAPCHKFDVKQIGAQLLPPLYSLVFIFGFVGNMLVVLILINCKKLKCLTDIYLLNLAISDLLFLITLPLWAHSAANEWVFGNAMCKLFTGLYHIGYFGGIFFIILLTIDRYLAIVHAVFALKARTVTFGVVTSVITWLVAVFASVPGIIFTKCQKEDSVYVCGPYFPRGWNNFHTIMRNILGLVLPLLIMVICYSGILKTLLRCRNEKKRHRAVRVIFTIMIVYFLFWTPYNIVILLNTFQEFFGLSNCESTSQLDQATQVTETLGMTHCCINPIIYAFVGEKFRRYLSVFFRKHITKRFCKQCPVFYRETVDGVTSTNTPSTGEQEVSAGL
Description: Radioligand Binding Assay.
^125I-MCP-1 binding assays were performed in 96:well plates with 40 μg of protein per well. Compounds were dissolved and diluted in DMSO to 100× dilutions. A 10× concentration range of compounds was prepared in binding buffer (10% DSMO). Competition binding assays contained the following components in a total volume of 250 μl: 25 μl of the appropriate compound dilution (final concentration of 1% DMSO), 200 μl membranes from CCR2B-transfected CHO cells dissolved in binding buffer and 25 μl ^125I-MCP-1 (Bolton and Hunter labeled, Amersham, specific activity=2000 Ci/mmol, 0.15 nM final). Binding buffer was composed of 25 mM HEPES, 5 mM MgCl2, 1 mM CaCl2, 0.5% protease-free bovine serum albumin, pH 7.4. After 90 minutes incubation at 25° C. membranes were harvested on GF/B filters—presoaked in 0.5% polyethylenimine, followed by washing with buffer containing 25 mM HEPES, 5 mM MgCl2, 1 mM CaCl2, 5 mM NaCl, pH 7.4. Filter bound radioactivity was determined by liquid scintillation counting. EC50 values (μM) and Ki values (μM) were calculated. The ED50 value indicates the concentration of the test compound that competes with MCP-1 for half of the specific binding sites; the Ki value indicates the equilibrium dissociation constant, i.e. the concentration of the test compound that will bind to half of the binding sites at equilibrium in the absence of radioligand or other competitors. EC50 values and Ki values were calculated using non-linear regression in Graphpad Prism. Prism calculates the Ki or affinity of the receptor for the competing drug using the equation of Cheng and Prusoff (Biochem. Pharmacol. 1973, 22: 3099-3108). A low Ki indicates a high affinity of the receptor for the test compound. [formula] wherein Kd describes the affinity of the radioligand for the receptor, i.e. the concentration of the radioligand that will bind to half of the binding sites at equilibrium in the absence of competitors.
Table 6 lists Ki values (μM) obtained in the above-described test for compounds of formula (I).

CCR2 [1] = molecular target: T2, CCR2 (Homo sapiens, UniProt P41597); assay: Chemotactic response of human PBMC to MCP-1; type: cell-based; design: Mononuclear cells from human heparinized peripheral blood (PBMC) were isolated; endogenous in cells; host or cells: human peripheral blood mononuclear cells; details: inhibition of migration of human PBMC to 30 ng/ml hMCP-1, 105 minutes
T2 sequence (P41597 1-360 isoform P41597-2): T1 sequence (P41597 1-360 isoform P41597-2)
Description: The CCR2 antagonistic activity of the compounds of the present invention can also be determined by measuring the effect of the compounds on the chemotactic response of cells in the presence of a chemokine, such as for example MCP-1.
Mononuclear cells from human heparinized peripheral blood (PBMC) were isolated using Ficoll-Paque gradient centrifugation (Amersham Biosciences). Assays of chemotactic responsiveness were performed using disposable 96-well chemotaxis chambers (ChemoTx, Neuro Probe) with 5-μm pore size polycarbonate (PVP-free) filter membranes. Mononuclear cells were fluorescently labeled with 5 μg/ml Calcein-AM (Molecular Probes, Eugene, Oreg.) at 37° C. for 30 minutes. Labeled cells were washed twice and resuspended at 5×10^6 cells/ml in Hanks' Balanced Salt Solution (Gibco BRL) supplemented with 0.2% bovine serum albumin. Subsequently, cells were pre-incubated for 10 minutes at room temperature with serial dilutions of the compounds in DMSO (dimethylsulfoxide) (final DMSO concentration of 0.2%). Bottom wells of the chemotaxis chamber were loaded with 28 μl medium containing 30 ng/ml recombinant hMCP-1 (R&D) or buffer only. Pre-treated cells (100.000 cells) were added in triplicate to the topside of the filter (20 μl) and incubated at 37° C. in humidified air containing 5% CO2. After 105 minutes incubation, the non-migrated cells were removed from the top of the filter by gently wiping the filter with a tissue. The migrated cells were measured using a fluorescent plate reader (λexcitation=485 nm; λemission=538 nm). The chemotactic response can be expressed as chemotactic index (C.I.), being the ratio of the means of migrated cells in the presence of MCP-1 and the means of migrated cells in the absence of chemokine. Percentage inhibition was calculated using the formula: [formula]
with Fsample, the fluorescence of the cells pre-incubated with 10, 1, 0.1, 0.01 or 0.001 μM compound and migrated to 30 ng/ml MCP-1 in the bottom wells; FMCP-1, the fluorescence of the cells pre-incubated with buffer-0.2% DMSO and migrated to 30 ng/ml MCP-1 and Fbuffer, the fluorescence of cells pre-incubated with buffer-0.2% DMSO and spontaneous migrated to buffer in the bottom wells. Table 7 lists the IC50 values (μM) obtained in the above-described test for compounds of formula (I). Assays were run in triplicate and repeated 2-7 times.

CCR2 [2] = molecular target: T2, CCR2; assay: Inhibition of MCP-1 induced Ca-flux in human THP-1 cells; type: cell-based; design: host or cells: THP-1 (human monocytic cell line); details: -log IC50 (molar), inhibition of specific MCP-1 (10^-7 M hMCP-1) induced Ca2+ flux, FLIPR
Description: Inhibition of MCP-1 Induced Ca-Flux in Human THP-1 Cells
MCP-1 binding to the CCR2 receptor induces a rapid and transient intracellular release of Ca^2+ (secondary messenger) in several cell lines (Charo et al, PNAS 1994). Free Ca^2+ levels can be measured using a Ca^2+ sensitive dye. When the CCR2 receptor is blocked with a CCR2 receptor antagonist, the MCP-1 induced release of Ca^2+ is inhibited.
Human THP-1 cells (monocytic cell line, ATCC TIB-202) were cultured in RPMI 1640 medium supplemented with 10% fetal calf serum (FCS), 1% L-Glutamine, penicillin (50 U/ml) and streptomycin (50 μg/ml) (all GIBCO BRL, Gent). After centrifugation, cells were loaded for 30 minutes with the Ca^2+ sensitive fluorescent dye Fluo-3 μM (Molecular Probes, Leiden, Netherlands) (2 million cells/ml in RPMI medium containing 4 μM Fluo-3 μM, 20 mM HEPES, 0.1% Bovine Serum Albumin (BSA) and 5 mM probenecid). Excess dye was removed by 3-fold washing with buffer (5 mM HEPES, 140 mM NaCl, 1 mM MgCl2, 5 mM KCl, 10 mM glucose, 2.5 mM probenecid, 1.25 mM CaCl2, 0.1% BSA; all further incubations were done in this buffer). Cells were plated at a density of 150 000 cells/well in dark-wall 96-well plates (Costar, Cambridge, Mass.) and sedimented by centrifugation (1 minute). The cells were pre-incubated for 20 minutes with test compound. Then, 10^−7 M hMCP-1 (Bachem, Bubendorf, Switserland) was added. Changes in intracellular free Ca^2+ concentration were measured using the Fluorescent Imaging Plate Reader (FLIPR, Molecular Devices, Munchen, Germany). Fluorescence was recorded every second from 10 seconds before the addition of the MCP-1 till 2 minutes after the addition (first minute: 60 records with 1 second intervals, second minute 20 records with 3 second intervals). The maximal fluorescence obtained during this time frame was used for further calculations.
Table 5 reports pIC50 values obtained in the above-described test for compounds of formula (I). pIC50 defines—log IC50 wherein IC50 is the molar concentration of the test compound which inhibits 50% of specific MCP-1 induced Ca^2+ flux.

Compound | melting point [°C] | Ki (CCR2B) [nM] | IC50 (CCR2 [1]) [nM] | IC50 (CCR2 [2]) [nM]
CCC(c1ccc(Cl)c(Cl)c1)n1cc(-c2sc(N)nc2C)nc1S.Cl (stereo not drawn) | 301.8 to 303.3 | – | – | –
CCC(c1ccc(F)c(F)c1)n1c(C(=O)OC)c(-c2ccno2)[nH]c1=S (stereo in doubt) [Compound 53, (S)-3-[1-(3,4-difluoro-phenyl)propyl]-5-isoxazol-5-yl-2-thioxo-2,3-dihydro-1H-imidazole-4-carboxylic acid methyl ester] | – | 30 | 108 | –
CCC(c1ccc(Cl)c(Cl)c1)n1c(C(=O)OC)c(-c2cccs2)[nH]c1=S (stereo not drawn) [Compound 6] | – | – | – | 55
CCC(c1ccc(F)c(F)c1)n1c(S)nc(-c2ccno2)c1C(=O)OC (stereo not drawn) [Compound 7] | – | – | – | 11.7
CCC(c1ccc(Cl)c(Cl)c1)n1c(S)nc(-c2nnco2)c1C(=O)OC (stereo not drawn) [Compound 9] | – | – | – | 35.5
CCC(c1ccc(F)c(F)c1)n1c(C(N)=O)c(-c2nnc(C)o2)[nH]c1=S (stereo not drawn) [Compound 13] | 228 to 229 | 300 | – | –
CCC(c1ccc(F)c(F)c1)n1c(C(=O)NCCO)c(-c2nnc(C)o2)[nH]c1=S (stereo not drawn) [Compound 14] | 165 to 166 | – | – | –
CCC(c1ccc(F)c(F)c1)n1c(S)nc(-c2cc(C)on2)c1C(=O)OCCOC (stereo not drawn) [Compound 16] | – | – | – | 31.6
CCC(c1ccc(Cl)c(Cl)c1)n1c(C(=O)O)c(-c2cccs2)[nH]c1=S (stereo not drawn) [Compound 23] | – | – | 24 | –
CCC(c1ccc(Cl)c(Cl)c1)n1c(C(=O)OC)c(-c2snnc2C)[nH]c1=S (stereo not drawn) [Compound 24] | – | – | – | 72.4
CCC(c1ccc(Cl)c(Cl)c1)n1c(C(=O)OC)c(-c2ccno2)[nH]c1=S (stereo not drawn) [Compound 25] | – | – | – | 13.2
CCC(c1ccc(Cl)c(Cl)c1)n1c(C(=O)OC)c(-c2ccno2)[nH]c1=S (stereo not drawn) [Compound 26] | – | 50 | – | 7.94
CCC(c1ccc(Cl)c(Cl)c1)n1c(C(=O)OC)c(-c2nnc(C)o2)[nH]c1=S (stereo not drawn) [Compound 27] | – | – | – | 33.1
CCC(c1ccc(Cl)c(Cl)c1)n1c(C(=O)OC)c(-c2cc(C)on2)[nH]c1=S (stereo not drawn) [Compound 28] | – | 10 | 367 | 15.8
CCC(c1ccc(Cl)c(Cl)c1)n1c(C(=O)OC)c(-c2ccccc2)[nH]c1=S (stereo not drawn) [Compound 31] | – | 70 | 214 | 75.9
CCC(c1ccc(Cl)c(Cl)c1)n1c(C(=O)OC)c(-c2ccccn2)[nH]c1=S (stereo not drawn) [Compound 32] | – | – | – | 25.1
CCC(c1ccc(Cl)c(Cl)c1)n1c(C(=O)OC)c(-c2ccncc2)[nH]c1=S (stereo not drawn) [Compound 33] | – | – | – | 12.6
CCC(c1ccc(Cl)c(Cl)c1)n1c(C(=O)OC)c(-c2cnccn2)[nH]c1=S (stereo not drawn) [Compound 34] | – | – | – | 25.1
CCC(c1ccc(Cl)c(Cl)c1)n1c(C(N)=O)c(-c2nnc(C)o2)[nH]c1=S (stereo not drawn) [Compound 36] | – | 70 | 244 | 39.8
CCCC(c1ccc(Cl)c(Cl)c1)n1c(C(=O)OC)c(-c2nnc(C)o2)[nH]c1=S (stereo not drawn) [Compound 40] | – | – | – | 43.7
CC[C@H](c1ccc(F)c(F)c1)n1c(C(=O)OC)c(-c2ccno2)[nH]c1=S [Compound 43] | – | 30 | – | 7.94
CCCC(c1ccc(F)c(F)c1)n1c(C(=O)OC)c(-c2ccno2)[nH]c1=S (stereo not drawn) [Compound 48] | – | – | – | 12.6
CCCC(c1ccc(F)c(F)c1)n1c(C(=O)OC)c(-c2cc(C)on2)[nH]c1=S (stereo not drawn) [Compound 49] | – | – | – | 25.1
COCC(c1ccc(F)c(F)c1)n1c(C(=O)OC)c(-c2nnc(C)o2)[nH]c1=S (stereo not drawn) [Compound 50] | 102.8 to 102.9 | – | – | –
CCC(c1ccc(Cl)c(Cl)c1)n1c(C(=O)OC)c(-c2cccnc2)[nH]c1=S (stereo not drawn) [Compound 51] | – | – | 474 | 39.8
